Earlier results in patent US7855190B2, “Methods of hormonal treatment utilizing contraceptive regimens with continuous estrogen administration” (Teva Women's Health, Inc., priority 2003, dated 2010).

Settings: for amount equivalent to 0.050 mg of levonorgestrel: relative potency of progestins; for amount roughly equivalent to 30 μg of ethinyl estradiol: relative potency of estrogens

| SMILES | amount equivalent to 0.050 mg of levonorgestrel | amount roughly equivalent to 30 μg of ethinyl estradiol |
| --- | --- | --- |
| C#CC1(O)CC[C@H]2[C@@H]3CCC4=CC(=O)CC[C@@H]4[C@H]3CC[C@@]21CC (mixture of isomers) [norgestrel] | about 0.100 mg |  |
| C#C[C@]1(O)CC[C@H]2[C@@H]3CCC4=CC(=O)CC[C@@H]4[C@H]3C(=C)C[C@@]21CC [3-ketodesogestrel] | about 0.050 mg |  |
| C[C@]12CC[C@@H]3c4ccc(O)cc4CC[C@H]3[C@@H]1CC[C@@H]2O [17β-estradiol] |  | ~2,000 μg |
| C#C[C@]1(O)CC[C@H]2[C@@H]3CCC4=CCCC[C@@H]4[C@H]3C(=C)C[C@@]21CC [desogestrel] | about 0.050 mg |  |
| C#C[C@]1(O)C=C[C@H]2[C@@H]3CCC4=CC(=O)CC[C@@H]4[C@H]3CC[C@@]21CC [gestodene] | about 0.035 mg |  |
| C#C[C@]1(O)CC[C@H]2[C@@H]3CCc4cc(OC)ccc4[C@H]3CC[C@@]21C [mestranol] |  | ~60 µg |
| C#C[C@]1(OC(C)=O)CC[C@H]2[C@@H]3CCC4=CC(=O)CC[C@@H]4[C@H]3CC[C@@]21C [norethindrone acetate] | about 0.175 mg |  |
